In PubChem BioAssay AID180 (DTP/NCI, 2004) one finds T/C data, which are given here for 20 compounds.

The term T/C denotes the result in the treated group divided by that in the control group, in per cent.

The assay concerns BDF1 mice, Adenocarcinoma 755 s.c., tumor weight T/C. As to the kind of experiment: NCI In Vivo Anticancer Drug Screen. Data for tumor model Adenocarcinoma 755 (subcutaneous) in B6D2F1 (BDF1) mice. The following applies: endpoint: mean tumor weight, higher = larger tumour. A digest of the protocol: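 Readout: T/C, i.e. treated-group measurement over vehicle-control measurement. Endpoint is survival or tumor size in tumor-bearing mice given compound.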

Setting [1] is: dose: 30.0 mg/kg/injection, schedule: Q01DX011 (ip), vehicle: carboxymethylcellulose (CMC).
[2] abbreviates: dose: 60.0 mg/kg/injection, schedule: Q01DX011 (ip), vehicle: carboxymethylcellulose (CMC).
Where [3] appears, read: dose: 120.0 mg/kg/injection, schedule: Q01DX011 (ip), vehicle: carboxymethylcellulose (CMC).
Setting [4] is: dose: 240.0 mg/kg/injection, schedule: Q01DX011 (ip), vehicle: carboxymethylcellulose (CMC).
Where [5] appears, read: dose: 37.5 mg/kg/injection, schedule: Q01DX011 (ip), vehicle: saline.
Setting [6] is: dose: 75.0 mg/kg/injection, schedule: Q01DX011 (ip), vehicle: saline.
[7] abbreviates: dose: 150.0 mg/kg/injection, schedule: Q01DX011 (ip), vehicle: saline.
Where [8] appears, read: dose: 25.0 mg/kg/injection, schedule: Q01DX011 (ip), vehicle: saline.

Where “and” joins values, the source holds several entries; their conditions need not be identical. Equal values may be shown once.

Turning to `NS(=O)(=O)c1nc2nc[nH]c(=O)c2[nH]1`, the T/C is 113 % of control under setting [1], 163 % of control under setting [2], 104 % of control under setting [3] and 113 % of control under setting [4].
Regarding `CC(Cc1ccccc1)NC(=O)CCl` (stereo not drawn), the T/C was 68 % of control (dose: 37.0 mg/kg/injection, schedule: Q01DX011 (im), vehicle: other); 71 % of control (dose: 37.0 mg/kg/injection, schedule: Q01DX011 (oral), vehicle: other); 118 % of control (dose: 37.0 mg/kg/injection, schedule: Q01DX011 (sc), vehicle: other); 68 % of control (dose: 50.0 mg/kg/injection, schedule: Q01DX011 (im), vehicle: other); 106 % of control (dose: 50.0 mg/kg/injection, schedule: Q01DX011 (oral), vehicle: other); 73 % of control (dose: 50.0 mg/kg/injection, schedule: Q01DX011 (sc), vehicle: other). Also, the T/C runs as follows: (dose: 75.0 mg/kg/injection, schedule: Q01DX011 (im), vehicle: other) 48 % of control; (dose: 75.0 mg/kg/injection, schedule: Q01DX011 (oral), vehicle: other) 87 % of control; (dose: 75.0 mg/kg/injection, schedule: Q01DX011 (sc), vehicle: other) 63 % of control; (dose: 112.0 mg/kg/injection, schedule: Q01DX011 (oral), vehicle: other) 82 % of control.
In the case of `Cn1cnc2c(ncn2C2CC(O)C(CO)O2)c1=N` (stereo not drawn), the T/C is, setting by setting: (dose: 30.0 mg/kg/injection, schedule: Q01DX011 (ip), vehicle: saline) 83 % of control; (dose: 60.0 mg/kg/injection, schedule: Q01DX011 (ip), vehicle: saline) 100 % of control; (dose: 120.0 mg/kg/injection, schedule: Q01DX011 (ip), vehicle: saline) 80 % of control; (dose: 240.0 mg/kg/injection, schedule: Q01DX011 (ip), vehicle: saline) 108 % of control.
Regarding `Cc1ccc(C(=O)Nc2ccc(S(=O)(=O)O)c3cc(S(=O)(=O)O)cc(S(=O)(=O)O)c23)cc1NC(=O)c1cccc(NC(=O)Nc2cccc(C(=O)Nc3cc(C(=O)Nc4ccc(S(=O)(=O)O)c5cc(S(=O)(=O)O)cc(S(=O)(=O)O)c45)ccc3C)c2)c1` (tested in a mixture with another compound), the T/C (dose: 170.0 mg/kg/injection, schedule: Q01DX011 (ip), vehicle: methylcellulose (MC)) is 88 % of control and 82 % of control; the T/C (dose: 680.0 mg/kg/injection, schedule: Q01DX011 (ip), vehicle: methylcellulose (MC)) is 98 % of control.
Turning to `Cn1c(=O)c2[nH]c(N/N=C/c3ccccc3C(=O)O)nc2n(C)c1=O`, the T/C is 103 % of control under setting [1], 92 % of control under setting [2], 88 % of control under setting [3] and 95 % of control under setting [4].
Regarding `O=C(Nc1cccc(C2=NCCN2)c1)c1ccc(N=Nc2ccc(C(=O)Nc3cccc(C4=NCCN4)c3)cc2)cc1`, the T/C reads like this: (dose: 15.0 mg/kg/injection, schedule: Q01DX011 (ip), vehicle: methylcellulose (MC)) 81 % of control; (dose: 30.0 mg/kg/injection, schedule: Q01DX011 (ip), vehicle: methylcellulose (MC)) 70 % of control; (dose: 60.0 mg/kg/injection, schedule: Q01DX011 (ip), vehicle: methylcellulose (MC)) 68 % of control; (dose: 120.0 mg/kg/injection, schedule: Q01DX011 (ip), vehicle: methylcellulose (MC)) 70 % of control.
As for `CCCCCn1cnc2c(SCc3ccccc3)nc(N)nc21`, the T/C is 68 % of control under setting [5], 78 % of control under setting [6] and 77 % of control under setting [7].
Consider `Clc1nc(Cl)c2ncn(C3CCCO3)c2n1` (stereo not drawn), for which the T/C (dose: 33.0 mg/kg/injection, schedule: Q01DX011 (ip), vehicle: methylcellulose (MC)) is 65 % of control.
In the case of `CC(=O)[C@H]1[C@H](O)C[C@H]2[C@@H]3CCC4=CC(=O)CC[C@]4(C)[C@@]3(F)[C@@H](O)C[C@@]21C`, the T/C is, setting by setting: (dose: 100.0 mg/kg/injection, schedule: Q01DX011 (sc), vehicle: steriod suspending solution) 48 % of control; (dose: 125.0 mg/kg/injection, schedule: Q01DX011 (oral), vehicle: steriod suspending solution) 74 % of control; (dose: 200.0 mg/kg/injection, schedule: Q01DX011 (sc), vehicle: steriod suspending solution) 38 % of control; (dose: 250.0 mg/kg/injection, schedule: Q01DX011 (oral), vehicle: steriod suspending solution) 57 % of control; (dose: 400.0 mg/kg/injection, schedule: Q01DX011 (sc), vehicle: steriod suspending solution) 36 % of control; (dose: 500.0 mg/kg/injection, schedule: Q01DX011 (oral), vehicle: steriod suspending solution) 62 % of control. For the same compound, the T/C (dose: 800.0 mg/kg/injection, schedule: Q01DX011 (sc), vehicle: steriod suspending solution) was 26 % of control and the T/C (dose: 1000.0 mg/kg/injection, schedule: Q01DX011 (oral), vehicle: steriod suspending solution) is 58 % of control.
On to `COC(=O)c1nc(-c2ccc3c(n2)C(=O)C(N)=C(OC)C3=O)c(N)c(-c2ccc(OC)c(OC)c2O)c1C`, for which the T/C (dose: 0.31 mg/kg/injection, schedule: Q01DX011 (ip), vehicle: other) was 42 % of control; the T/C (dose: 0.63 mg/kg/injection, schedule: Q01DX011 (ip), vehicle: other) is 14 % of control; the T/C (dose: 1.25 mg/kg/injection, schedule: Q01DX011 (ip), vehicle: other) was 1 % of control; the T/C (dose: 6.0 mg/kg/injection, schedule: Q01DX006 (ip), vehicle: water) is 40 % of control; the T/C (dose: 12.5 mg/kg/injection, schedule: Q01DX006 (ip), vehicle: water) was 7 % of control.
As for `CCC(=O)N(CC)CC`, the T/C (dose: 250.0 mg/kg/injection, schedule: Q01DX011 (ip), vehicle: other) was 100 % of control.
Take `Nc1n[nH]c(N)n1`: the T/C is, setting by setting: (dose: 300.0 mg/kg/injection, schedule: Q01DX011 (ip), vehicle: methylcellulose (MC)) 55 % of control; (dose: 400.0 mg/kg/injection, schedule: Q01DX011 (ip), vehicle: methylcellulose (MC)) 58 % of control; (dose: 500.0 mg/kg/injection, schedule: Q01DX011 (ip), vehicle: methylcellulose (MC)) 44 % of control.
Consider `c1ccc2cc(SCCCN3CCOCC3)ccc2c1`, for which the T/C (dose: 37.5 mg/kg/injection, schedule: Q01DX011 (ip), vehicle: methylcellulose (MC)) was 90 % of control and 107 % of control; the T/C under setting [5] was 115 % of control; the T/C (dose: 75.0 mg/kg/injection, schedule: Q01DX011 (ip), vehicle: methylcellulose (MC)) was 103 % of control; the T/C under setting [6] was 59 % of control; the T/C (dose: 150.0 mg/kg/injection, schedule: Q01DX011 (ip), vehicle: methylcellulose (MC)) was 70 % of control; the T/C under setting [7] is 20 % of control.
Turning to `CC(=O)OCC1CCCC(n2cnc3c(Cl)ncnc32)O1` (stereo not drawn), the T/C by setting is: (dose: 62.5 mg/kg/injection, schedule: Q01DX011 (ip), vehicle: methylcellulose (MC)) 74 % of control; (dose: 125.0 mg/kg/injection, schedule: Q01DX011 (ip), vehicle: methylcellulose (MC)) 52 % of control; (dose: 250.0 mg/kg/injection, schedule: Q01DX011 (ip), vehicle: methylcellulose (MC)) 26 % of control.
In the case of `CC1CCOS(=O)O1` (stereo not drawn), the T/C (dose: 20.0 mg/kg/injection, schedule: Q01DX011 (ip), vehicle: carboxymethylcellulose (CMC)) was 76 % of control and the T/C (dose: 40.0 mg/kg/injection, schedule: Q01DX011 (ip), vehicle: carboxymethylcellulose (CMC)) was 18 % of control.
Take `CN(C)N=Nc1ccc(C(=O)NN)cc1`: the T/C runs as follows: (dose: 75.0 mg/kg/injection, schedule: Q01DX011 (ip), vehicle: carboxymethylcellulose (CMC)) 31 % of control; (dose: 100.0 mg/kg/injection, schedule: Q01DX011 (ip), vehicle: carboxymethylcellulose (CMC)) 15 % of control.
As to `CC(O)CNc1ncnc2c1cnn2C` (stereo not drawn), the T/C is, setting by setting: (dose: 12.5 mg/kg/injection, schedule: Q01DX011 (ip), vehicle: saline) 94 % of control; under setting [8], 30 % of control; (dose: 50.0 mg/kg/injection, schedule: Q01DX011 (ip), vehicle: saline) 10 % of control.
For `Nc1nc2c(ccn2Cc2ccccc2)c(=O)[nH]1`, the T/C is, setting by setting: under setting [1], 92 % of control; under setting [3], 106 % of control.
Take `[O-][N+](CCO)(CCO)c1ncnc2nc[nH]c12`: the T/C was 121 % of control under setting [8]; 72 % of control under setting [6]; 82 % of control (dose: 225.0 mg/kg/injection, schedule: Q01DX011 (ip), vehicle: saline).
As to `CC1CN1P(=O)(N1CC2CCC(CC2)C1)N1CC1C` (stereo not drawn), the T/C runs as follows: (dose: 7.0 mg/kg/injection, schedule: Q01DX011 (ip), vehicle: saline) 109 % of control; (dose: 14.0 mg/kg/injection, schedule: Q01DX011 (ip), vehicle: saline) 87 % of control; (dose: 28.0 mg/kg/injection, schedule: Q01DX011 (ip), vehicle: saline) 87 % of control.
